What was measured:
[1] = 25° C., up to 4 weeks; compared with cationic lipids III and IV
[2] = Detection of novel coronavirus LNP-mRNA vaccine after encapsulation with different cationic lipids (encapsulation efficiency, particle size, PDI, Zeta potential); assay type: physicochemical; details: compared with control cationic lipids III and IV
Hep3B cells = assay type: cell-based; details: compared with cationic lipids III and IV

Row | Compound | stability of LNP-mRNAs prepared by the cationic lipid [1] | encapsulation effect on mRNA antigen [2] | in-vitro transfection efficiency (Hep3B cells)
1 | CCCCCCCCCCCOC(=O)OCCCCCN(CCO)CCCCCCCOC(=O)OC(CCCCCCCC)CCCCCCCC [Compound 2] | better | better encapsulation effect | better
2 | CCCCCCCCC(CCCCCC)COC(=O)OCCCCCCN(CCCCO)CCCCCCOC(=O)OCC(CCCCCC)CCCCCCCC (stereo not drawn) [Compound 1] | better | better encapsulation effect | better

From patent publication US20240325521A1, “IONIZABLE LIPID COMPOUND FOR NUCLEIC ACID DELIVERY AND LNP COMPOSITION THEREOF” (priority 2021, published 2024)
